From patent publication US20120255051A1, “HERBICIDE TOLERANT PLANTS” (priority 2009, published 2012)
Values joined by “and” are separate entries in the source; they are usually repeats but may differ in a detail not shown here. Equal values may be shown once.

Test system: Brassica plants comprising mutant AHAS alleles
Test: Field trial, pre-planting treatment (0, 10, 20, 30 g a.i./ha), two locations in Canada: ERG, EST1, EST2, PPTOX, VIG1, VIG2, VIG3 scores
Assay type: in vivo, Brassica napus
Description: Tests were set up and conducted to asses the growth and performance of plants comprising AHAS full knock-out alleles, and to further analyze the correlation between the presence of full knockout and missense AHAS genes in Brassica plants and plant growth and herbicide tolerance of the Brassica plants in the field. To this end, the Brassica plants identified in Example 1 and 2 were backcrossed two times with an elite parent line, and subsequently selfed twice to obtain homozygous plants (BC2S2). Plants were grown as row plots in a split plot design with three replicates (main plots=herbicide treatments, subplots=genotypes) at two locations in Canada. Treatment pre-planting was carried out on the soil about two days before sowing with a dose of 0 (treatment A), 10 (treatment B), 20 (treatment C) or 30 (treatment D) g a.i./ha of thiencarbazone methyl. Herbicide tolerance was measured by scoring for different parameters. The parameter emergence (ERG) was scored at the cotyledon stage on a scale 1-9, where 1 means late emergence and 9 means early emergence. Establishment was scored 14 days after sowing (EST1) and 21 days after sowing (EST2). Scores were from 1 to 9, where 1 is the worst establishment (least plants that emerged), and 9 is the best establishment (most plants emerged). Phytotoxicity (PPTOX) was determined after establishment. Plants were evaluated on a scale of 1 to 9, where 1=completely yellowing, 5=50% of plant is yellow and 9=no yellowing. The vigor scores (see above) were determined at 1-2 leaf stage (VIG1), 7 days after VIG1 (VIG2) and 14 days after VIG1 (VIG3). The average values (Av) and standard deviations (SD) of the scores for the different parameters are represented in Table 7a-g.
Further, the contribution of the knock-out allele to herbicide tolerance conferred by the missense allele was calculated. First, the scores were corrected for a possible effect of the growth per se, independent of herbicide treatment. To this end, the scores for treatments B, C and D were divided by the scores for treatment A for the same genotype and for the same parameter (corrected herbicide tolerance scores). Next, the effect of the knock-out allele to these corrected herbicide tolerance scores obtained by the missense allele was calculated. Therefore, the corrected herbicide tolerance scores for the missense—knock-out allele combination was divided by the corrected herbicide tolerance scores for the missense allele—wild-type combination. In case the knock-out allele has no effect on herbicide tolerance conferred by the missense allele, this ratio should be 1. In case the knock-out allele positively contributes to the herbicide tolerance conferred by the missense allele, this ratio should be higher than 1. The results for the contribution of the knock-out allele to herbicide tolerance conferred by the missense allele as calculated above are shown in table 8.

[1] = Location B, treatment D 30 g a.i./ha pre-planting, ratio >1 = positive contribution

## COC(=O)c1csc(C)c1S(=O)(=O)NC(=O)n1nc(OC)n(C)c1=O [thiencarbazone-methyl, methyl 4-[(4,5-dihydro-3-methoxy-4-methyl-5-oxo-1H-1,2,4-triazol-1-yl)carbonylsulfamoyl]-5-methylthiophene-3-carboxylate]
[1]
  relative contribution of HETO104 (AHAS3 KO) to herbicide tolerance conferred by HETO108 (AHAS1 missense): EST2: 0.95
  relative contribution of HETO104 (AHAS3 KO) to herbicide tolerance conferred by HETO108 (AHAS1 missense): PPTOX: 1.44
  relative contribution of HETO104 (AHAS3 KO) to herbicide tolerance conferred by HETO108 (AHAS1 missense): VIG1: 1.40
  relative contribution of HETO104 (AHAS3 KO) to herbicide tolerance conferred by HETO108 (AHAS1 missense): VIG2: 1.38
  relative contribution of HETO104 (AHAS3 KO) to herbicide tolerance conferred by HETO108 (AHAS1 missense): VIG3: 1.34
  relative contribution of HETO112 (AHAS1 KO) to herbicide tolerance conferred by HETO111 (AHAS3 missense): ERG: 0.88
  relative contribution of HETO112 (AHAS1 KO) to herbicide tolerance conferred by HETO111 (AHAS3 missense): EST1: 0.97
  relative contribution of HETO112 (AHAS1 KO) to herbicide tolerance conferred by HETO111 (AHAS3 missense): EST2: 0.92
  relative contribution of HETO112 (AHAS1 KO) to herbicide tolerance conferred by HETO111 (AHAS3 missense): PPTOX: 0.76
  relative contribution of HETO112 (AHAS1 KO) to herbicide tolerance conferred by HETO111 (AHAS3 missense): VIG1: 0.75
  relative contribution of HETO112 (AHAS1 KO) to herbicide tolerance conferred by HETO111 (AHAS3 missense): VIG2: 1.07
  relative contribution of HETO112 (AHAS1 KO) to herbicide tolerance conferred by HETO111 (AHAS3 missense): VIG3: 1.11
Plants AHAS1 HETO108 / AHAS3 HETO104, 10 g a.i./ha (treatment B) pre-planting, Location A
  vigor3 (VIG3) score, Av: 8.00
Plants AHAS1 HETO108 / AHAS3 HETO104, 10 g a.i./ha (treatment B) pre-planting, Location B
  vigor3 (VIG3) score, Av: 5.33
Plants AHAS1 HETO108 / AHAS3 HETO104, 20 g a.i./ha (treatment C) pre-planting, Location A
  vigor3 (VIG3) score, Av: 6.67
Plants AHAS1 HETO108 / AHAS3 HETO104, 20 g a.i./ha (treatment C) pre-planting, Location B
  vigor3 (VIG3) score, Av: 6.67
Plants AHAS1 HETO108 / AHAS3 HETO104, 30 g a.i./ha (treatment D) pre-planting, Location A
  vigor3 (VIG3) score, Av: 6.67
Plants AHAS1 HETO108 / AHAS3 HETO104, 30 g a.i./ha (treatment D) pre-planting, Location B
  vigor3 (VIG3) score, Av: 6.00
Plants AHAS1 HETO108 / AHAS3 HETO111, 10 g a.i./ha (treatment B) pre-planting, Location A
  vigor3 (VIG3) score, Av: 8.33
Plants AHAS1 HETO108 / AHAS3 HETO111, 10 g a.i./ha (treatment B) pre-planting, Location B
  vigor3 (VIG3) score, Av: 7.67
Plants AHAS1 HETO108 / AHAS3 HETO111, 20 g a.i./ha (treatment C) pre-planting, Location A
  vigor3 (VIG3) score, Av: 7.00
Plants AHAS1 HETO108 / AHAS3 HETO111, 20 g a.i./ha (treatment C) pre-planting, Location B
  vigor3 (VIG3) score, Av: 6.67
Plants AHAS1 HETO108 / AHAS3 HETO111, 30 g a.i./ha (treatment D) pre-planting, Location A
  vigor3 (VIG3) score, Av: 8.00
Plants AHAS1 HETO108 / AHAS3 HETO111, 30 g a.i./ha (treatment D) pre-planting, Location B
  vigor3 (VIG3) score, Av: 4.33
Plants AHAS1 HETO108 / AHAS3 WT, 10 g a.i./ha (treatment B) pre-planting, Location A
  vigor3 (VIG3) score, Av: 8.33 and 7.67
Plants AHAS1 HETO108 / AHAS3 WT, 10 g a.i./ha (treatment B) pre-planting, Location B
  vigor3 (VIG3) score, Av: 5.33 and 6.00
Plants AHAS1 HETO108 / AHAS3 WT, 20 g a.i./ha (treatment C) pre-planting, Location A
  vigor3 (VIG3) score, Av: 7.33 and 7.00
Plants AHAS1 HETO108 / AHAS3 WT, 20 g a.i./ha (treatment C) pre-planting, Location B
  vigor3 (VIG3) score, Av: 6.33 and 8.00
Plants AHAS1 HETO108 / AHAS3 WT, 30 g a.i./ha (treatment D) pre-planting, Location A
  vigor3 (VIG3) score, Av: 7.00 and 7.33
Plants AHAS1 HETO108 / AHAS3 WT, 30 g a.i./ha (treatment D) pre-planting, Location B
  vigor3 (VIG3) score, Av: 5.33
Plants AHAS1 HETO112 / AHAS3 HETO111, 10 g a.i./ha (treatment B) pre-planting, Location A
  vigor3 (VIG3) score, Av: 8.00
Plants AHAS1 HETO112 / AHAS3 HETO111, 10 g a.i./ha (treatment B) pre-planting, Location B
  vigor3 (VIG3) score, Av: 7.33
Plants AHAS1 HETO112 / AHAS3 HETO111, 20 g a.i./ha (treatment C) pre-planting, Location A
  vigor3 (VIG3) score, Av: 7.00
Plants AHAS1 HETO112 / AHAS3 HETO111, 20 g a.i./ha (treatment C) pre-planting, Location B
  vigor3 (VIG3) score, Av: 5.67
Plants AHAS1 HETO112 / AHAS3 HETO111, 30 g a.i./ha (treatment D) pre-planting, Location A
  vigor3 (VIG3) score, Av: 7.67
Plants AHAS1 HETO112 / AHAS3 HETO111, 30 g a.i./ha (treatment D) pre-planting, Location B
  vigor3 (VIG3) score, Av: 5.67
Plants AHAS1 HETO112 / AHAS3 WT, 10 g a.i./ha (treatment B) pre-planting, Location A
  vigor3 (VIG3) score, Av: 1.00
Plants AHAS1 HETO112 / AHAS3 WT, 10 g a.i./ha (treatment B) pre-planting, Location B
  vigor3 (VIG3) score, Av: 1.00
Plants AHAS1 HETO112 / AHAS3 WT, 20 g a.i./ha (treatment C) pre-planting, Location A
  vigor3 (VIG3) score, Av: 1.00
Plants AHAS1 HETO112 / AHAS3 WT, 20 g a.i./ha (treatment C) pre-planting, Location B
  vigor3 (VIG3) score, Av: 1.00
Plants AHAS1 HETO112 / AHAS3 WT, 30 g a.i./ha (treatment D) pre-planting, Location A
  vigor3 (VIG3) score, Av: 1.00
Plants AHAS1 HETO112 / AHAS3 WT, 30 g a.i./ha (treatment D) pre-planting, Location B
  vigor3 (VIG3) score, Av: 1.00
Plants AHAS1 WT / AHAS3 HETO104, 10 g a.i./ha (treatment B) pre-planting, Location A
  vigor3 (VIG3) score, Av: 1.00
Plants AHAS1 WT / AHAS3 HETO104, 10 g a.i./ha (treatment B) pre-planting, Location B
  vigor3 (VIG3) score, Av: 1.00
Plants AHAS1 WT / AHAS3 HETO104, 20 g a.i./ha (treatment C) pre-planting, Location A
  vigor3 (VIG3) score, Av: 1.00
Plants AHAS1 WT / AHAS3 HETO104, 20 g a.i./ha (treatment C) pre-planting, Location B
  vigor3 (VIG3) score, Av: 1.00
Plants AHAS1 WT / AHAS3 HETO104, 30 g a.i./ha (treatment D) pre-planting, Location A
  vigor3 (VIG3) score, Av: 1.00
Plants AHAS1 WT / AHAS3 HETO104, 30 g a.i./ha (treatment D) pre-planting, Location B
  vigor3 (VIG3) score, Av: 1.00
Plants AHAS1 WT / AHAS3 HETO111, 10 g a.i./ha (treatment B) pre-planting, Location A
  vigor3 (VIG3) score, Av: 7.67 and 7.00
Plants AHAS1 WT / AHAS3 HETO111, 10 g a.i./ha (treatment B) pre-planting, Location B
  vigor3 (VIG3) score, Av: 7.33
Plants AHAS1 WT / AHAS3 HETO111, 20 g a.i./ha (treatment C) pre-planting, Location A
  vigor3 (VIG3) score, Av: 6.67
Plants AHAS1 WT / AHAS3 HETO111, 20 g a.i./ha (treatment C) pre-planting, Location B
  vigor3 (VIG3) score, Av: 6.00
Plants AHAS1 WT / AHAS3 HETO111, 30 g a.i./ha (treatment D) pre-planting, Location A
  vigor3 (VIG3) score, Av: 6.67 and 6.33
Plants AHAS1 WT / AHAS3 HETO111, 30 g a.i./ha (treatment D) pre-planting, Location B
  vigor3 (VIG3) score, Av: 4.67 and 5.33
Plants AHAS1 WT / AHAS3 WT, 10 g a.i./ha (treatment B) pre-planting, Location A
  vigor3 (VIG3) score, Av: 1.00
Plants AHAS1 WT / AHAS3 WT, 10 g a.i./ha (treatment B) pre-planting, Location B
  vigor3 (VIG3) score, Av: 1.33
Plants AHAS1 WT / AHAS3 WT, 20 g a.i./ha (treatment C) pre-planting, Location A
  vigor3 (VIG3) score, Av: 1.00
Plants AHAS1 WT / AHAS3 WT, 20 g a.i./ha (treatment C) pre-planting, Location B
  vigor3 (VIG3) score, Av: 1.00
Plants AHAS1 WT / AHAS3 WT, 30 g a.i./ha (treatment D) pre-planting, Location A
  vigor3 (VIG3) score, Av: 1.00
Plants AHAS1 WT / AHAS3 WT, 30 g a.i./ha (treatment D) pre-planting, Location B
  vigor3 (VIG3) score, Av: 1.00
